Assay: mn = molality of the nth substance listed, in mol/kg
Conditions: 101.33 kPa, Liquid, Vibrating tube method

CCCCCCCCCC[N+](C)(C)C.[Br-] [N,N,N-trimethyl-1-decanaminium bromide] + O
mass density [kg/m3]
Conditions | m1 = 0.01879 | m1 = 0.02836 | m1 = 0.04784 | m1 = 0.05741 | m1 = 0.06268 | m1 = 0.0767 | m1 = 0.08783 | m1 = 0.09727 | m1 = 0.1206 | m1 = 0.1383
293.15 K | 998.685 | 998.921 | 999.399 | 999.635 | 999.765 | 1000.05 | 1000.28 | 1000.47 | 1000.86 | 1001.23
298.15 K | 997.496 | 997.716 | 998.157 | 998.379 | 998.511 | 998.788 | 998.987 | 999.17 | 999.597 | 999.91
303.15 K | 996.082 | 996.312 | 996.748 | 996.949 | 997.055 | 997.334 | 997.534 | 997.707 | 998.105 | 998.375

CCCCCCCCCCCCCCCC[N+](C)(C)C.[Br-] [N,N,N-trimethyl-1-hexadecanaminium bromide] + O
mass density [kg/m3]
Conditions | 293.15 K | 298.15 K | 303.15 K
m1 = 0.00082 | 998.23 | 997.052 | 995.673
m1 = 0.00093 | 998.234 | 997.055 | 995.669
m1 = 0.00104 | 998.238 | 997.058 | 995.669
m1 = 0.00205 | 998.239 | 997.06 | 995.666
m1 = 0.00309 | 998.245 | 997.062 | 995.67
m1 = 0.00411 | 998.243 | 997.065 | 995.678
m1 = 0.00625 | 998.254 | 997.073 | 995.681
m1 = 0.00726 | 998.258 | 997.076 | 995.678
m1 = 0.00801 | 998.255 | 997.076 | 995.687
m1 = 0.00931 | 998.264 | 997.078 | 995.679
m1 = 0.01038 | 998.274 | 997.082 | 995.679
m1 = 0.01139 | 998.276 | 997.089 | 995.693
m1 = 0.01252 | 998.279 | 997.093 | 995.676
m1 = 0.01454 | 998.293 | 997.098 | 995.699
m1 = 0.01561 | 998.296 | 997.105 | 995.676

CCCCCCCCCCCC[N+](C)(C)C.[Br-] [dodecyltrimethylammonium bromide] + O
mass density [kg/m3]
Conditions | 293.15 K | 298.15 K | 303.15 K
m1 = 0.00799 | 998.38 | 997.201 | 995.799
m1 = 0.00998 | 998.422 | 997.244 | 995.839
m1 = 0.01168 | 998.455 | 997.278 | 995.868
m1 = 0.01448 | 998.514 | 997.332 | 995.921
m1 = 0.01695 | 998.566 | 997.376 | 995.96
m1 = 0.01883 | 998.601 | 997.406 | 995.987
m1 = 0.02825 | 998.739 | 997.528 | 996.106
m1 = 0.04703 | 998.998 | 997.783 | 996.34
m1 = 0.09497 | 999.663 | 998.401 | 996.928
m1 = 0.1963 | 1001.05 | 999.701 | 998.119
m1 = 0.301 | 1002.39 | 1000.96 | 999.316

CCCCCC[N+](C)(C)C.[Br-] [hexyltrimethylammonium bromide] + O
mass density [kg/m3]
Conditions | 293.15 K | 298.15 K | 303.15 K
m1 = 0.04932 | 999.719 | 998.528 | 997.065
m1 = 0.07746 | 1000.55 | 999.34 | 997.873
m1 = 0.08812 | 1000.88 | 999.654 | 998.174
m1 = 0.1186 | 1001.76 | 1000.52 | 999.049
m1 = 0.1774 | 1003.49 | 1002.19 | 1000.78
m1 = 0.1855 | 1003.72 | 1002.41 | 1000.97
m1 = 0.2757 | 1006.26 | 1004.93 | 1003.53
m1 = 0.3712 | 1008.99 | 1007.66 | 1006.15
m1 = 0.4703 | 1011.8 | 1010.34 | 1008.8
m1 = 0.5274 | 1013.14 | 1011.76 | 1010.3
m1 = 0.5803 | 1014.75 | 1013.13 | 1011.67
m1 = 0.636 | 1016.19 | 1014.59 | 1013.12

CCCCCCCC[N+](C)(C)C.[Br-] [octyl trimethyl ammonium bromide] + O
mass density [kg/m3]
Conditions | m1 = 0.04535 | m1 = 0.09122 | m1 = 0.1223 | m1 = 0.1444 | m1 = 0.1759 | m1 = 0.1958 | m1 = 0.2338 | m1 = 0.2621 | m1 = 0.2773 | m1 = 0.3003
293.15 K | 999.46 | 1000.72 | 1001.54 | 1002.14 | 1002.97 | 1003.52 | 1004.58 | 1005.29 | 1005.65 | 1006.33
298.15 K | 998.261 | 999.486 | 1000.3 | 1000.84 | 1001.75 | 1002.13 | 1003.15 | 1003.84 | 1004.24 | 1004.76
303.15 K | 996.848 | 998.045 | 998.815 | 999.391 | 1000.2 | 1000.69 | 1001.63 | 1002.32 | 1002.69 | 1003.25

CCCCCCCCCCCCCC[N+](C)(C)C.[Br-] [tetradecyltrimethylammonium bromide] + O
mass density [kg/m3]
Conditions | 293.15 K | 298.15 K | 303.15 K
m1 = 0.00291 | 998.259 | 997.091 | 995.687
m1 = 0.00325 | 998.265 | 997.097 | 995.692
m1 = 0.00379 | 998.273 | 997.103 | 995.706
m1 = 0.00393 | 998.275 | 997.105 | 995.704
m1 = 0.0049 | 998.286 | 997.115 | 995.708
m1 = 0.0065 | 998.302 | 997.127 | 995.727
m1 = 0.00821 | 998.32 | 997.144 | 995.739
m1 = 0.01087 | 998.344 | 997.164 | 995.749
m1 = 0.04969 | 998.72 | 997.499 | 996.055
m1 = 0.09742 | 999.176 | 997.906 | 996.41
m1 = 0.1468 | 999.632 | 998.322 | 996.79
m1 = 0.1955 | 1000.08 | 998.719 | 997.144
m1 = 0.3023 | 1001 | 999.537 | 997.713
